Results published in patent US20090298897A1, “Treatment of Inflammatory Disorders With Triazole Compounds” (priority 2006, published 2009).
Values joined by “and” are separate entries in the source; they are usually repeats but may differ in a detail not shown here. Equal entries are not always repeated. “Also recorded” adds a separate entry of the source.

Columns and labels:
[1] = tested on: moderate to severe facial acne vulgaris; experiment: Treatment of acne vulgaris with oral rambazole (lesion counts); format: in vivo, human; details: for Table 5 (untitled, lesion count per subject): individual subjects; for No. of Responders (≧50% reduction in inflammatory lesions): of 16 subjects
Description: Sixteen patients with moderate to severe facial acne vulgaris received a daily oral dose of 1 mg of rambazole for 12 weeks. […] The average lesion reduction was 79%. See Tables 3 through 7 for additional individual data. See FIGS. 5 and 6, respectively, for a comparison of the response to treatment of inflammatory lesions versus non-inflammatory lesions.

[2] = tested on: moderate to severe plaque type psoriasis; experiment: Treatment of psoriasis with oral rambazole (PASI score); format: in vivo, human; details: for % PASI Score from Baseline: individual subjects
Description: Seventeen patients with a Psoriasis Area and Severity Index (PASI) score of at least 5 (moderate to severe plaque type psoriasis) received a daily oral dose of 1 mg of rambazole. The evolution of the PASI score was monitored after 1, 2, 4 and 8 weeks of treatment and at the end of a 2-week follow-up period. […] Biopsies from lesions were taken and surface markers were analyzed.

[3] = tested on: IL-1α; experiment: Expression of IL-1α, rambazole compared to retinoic acid (FIG. 2); format: in vivo, human
Source text: Also unexpectedly, rambazole-treated lesions (such as, for example, psoriatic lesions) continue to improve and show reduced inflammatory patterns for at least 3 months after discontinuation of treatment. Further, in contrast with retinoids such as isotretinoin, rambazole-treated inflammatory lesions responded rapidly within the first 4 weeks of treatment. This finding supports an antiinflammatory action for rambazole in addition to the typical effects on proliferation and differentiation.

[4] = tested on: IP-10; experiment: IP-10 expression and secretion in IFNγ-activated normal human epidermal keratinocytes (ELISA); format: cell-based; details: 50 U/mL IFNγ; rambazole 10^-5 M to 3×10^-8 M for 18 hours
Description: Fourth passage normal human epidermal keratinocytes were plated at 2,000 cells/well in low Ca^2+ KSFM. After 3 days incubation to 60% confluence, the medium was removed and cells were stimulated with 50 U/mL IFNγ and incubated with rambazole ranging from 10^-5 M to 3×10^-8 M for 18 hours. Interferon-inducible protein (IP-10) expression in the culture medium was determined using the IP-10 sandwich-type ELISA and all data were corrected for cell count. Values are represented as mean percentages±SD (n=4) versus drug solvent control.

[5] = tested on: IL-12p40; experiment: IL-12 secretion by activated monocytes (IL-12p40 ELISA); format: cell-based, human; details: monocytes activated with Zymosan or 19 kDa lipoprotein for 18 h
Description: Peripheral blood mononuclear cells (PBMC) were isolated from healthy donors by density gradient centrifugation on Ficoll-Hypaque Plus and monocytes were selected by adherence. After overnight culture in RPMI 1640 supplemented with […] FBS, monocytes were activated with Zymosan or 19 kDa lipoprotein for 18 h, and IL-12p40 was measured in the supernatant by ELISA.

[6] = tested on: SLS-induced irritant dermatitis; experiment: Irritant dermatitis induced by sodium lauryl sulfate (SLS); format: in vivo, human; details: 0.35% gel, 4 days pre-treatment and 5 days during 2% SLS; healthy volunteers
Description: Rambazole (0.35%) gel was applied as a pre-treatment during four days. Inflammation was induced by applying 2% SLS during 2 hours in rings on the arm of twelve healthy volunteers once a day for five days. Rambazole (0.35%) gel was applied during the five days of induced inflammation. Skin reactions of non-treated and rambazole gel-treated skin sites were assessed 24 hours after each application with SLS and 72 hours after the last SLS application (visual scoring of redness, chromametry, TEWL).

`CCC(CC)C(c1ccc(Nc2nc3ccccc3s2)cc1)n1cncn1` (centres unmarked) [rambazole] was tested, and the “Table 3 (untitled, lesion count), Min.” value ([1]; Visit No. 6, N 16) was 0, the “Table 4 (untitled, change of Table 3 count versus Visit 2), Max.” value ([1]; Visit No. 6, N 16) was −12 and the “Table 4 (untitled, change of Table 3 count versus Visit 2), Mean” value ([1]; Visit No. 6, N 16) was −43.4. For the same compound, the “Table 4 (untitled, change of Table 3 count versus Visit 2), Median” value ([1]; Visit No. 6, N 16) was −34.0, the “Table 4 (untitled, change of Table 3 count versus Visit 2), Min.” value ([1]; Visit No. 6, N 16) was −165 and the “Table 6 (untitled, summary of Table 5 lesion count), Max.” value ([1]; Visit No. 6, N 16) was 65. For the same compound, the “Table 6 (untitled, summary of Table 5 lesion count), Mean” value ([1]; Visit No. 6, N 16) was 22.6, the “Table 6 (untitled, summary of Table 5 lesion count), Median” value ([1]; Visit No. 6, N 16) was 26.0 and the “Table 6 (untitled, summary of Table 5 lesion count), Min.” value ([1]; Visit No. 6, N 16) was 0. The “Table 7 (untitled, change of Table 6 count versus Visit 2), Max.” value ([1]; Visit No. 6, N 16) was −22, the “Table 7 (untitled, change of Table 6 count versus Visit 2), Mean” value ([1]; Visit No. 6, N 16) was −58.6 and the “Table 7 (untitled, change of Table 6 count versus Visit 2), Median” value ([1]; Visit No. 6, N 16) was −58.5. For the same compound, the “Table 7 (untitled, change of Table 6 count versus Visit 2), Min.” value ([1]; Visit No. 6, N 16) was −165, the “Table 5 (untitled, lesion count per subject)” value ([1]; Visit No. 6) was 0 (2×) and 1 (2×) and 3 (2×) and 25 and 37 and 22 and 34 (2×) and 29 and 41 and 40 and 27 and 65 and the “Table 3 (untitled, lesion count), Max.” value ([1]; Visit No. 7, N 16) was 56. The “Table 3 (untitled, lesion count), Mean” value ([1]; Visit No. 7, N 16) was 13.3, the “Table 3 (untitled, lesion count), Median” value ([1]; Visit No. 7, N 16) was 8.0 and the “Table 3 (untitled, lesion count), Min.” value ([1]; Visit No. 7, N 16) was 0. The “Table 4 (untitled, change of Table 3 count versus Visit 2), Max.” value ([1]; Visit No. 7, N 16) was −14, the “Table 4 (untitled, change of Table 3 count versus Visit 2), Mean” value ([1]; Visit No. 7, N 16) was −42.9 and the “Table 4 (untitled, change of Table 3 count versus Visit 2), Median” value ([1]; Visit No. 7, N 16) was −35.0. The “Table 4 (untitled, change of Table 3 count versus Visit 2), Min.” value ([1]; Visit No. 7, N 16) was −159, the “Table 6 (untitled, summary of Table 5 lesion count), Max.” value ([1]; Visit No. 7, N 16) was 71 and the “Table 6 (untitled, summary of Table 5 lesion count), Mean” value ([1]; Visit No. 7, N 16) was 21.3. For the same compound, the “Table 6 (untitled, summary of Table 5 lesion count), Median” value ([1]; Visit No. 7, N 16) was 13.5, the “Table 6 (untitled, summary of Table 5 lesion count), Min.” value ([1]; Visit No. 7, N 16) was 0 and the “Table 7 (untitled, change of Table 6 count versus Visit 2), Max.” value ([1]; Visit No. 7, N 16) was −22. For the same compound, the “Table 7 (untitled, change of Table 6 count versus Visit 2), Mean” value ([1]; Visit No. 7, N 16) was −59.9, the “Table 7 (untitled, change of Table 6 count versus Visit 2), Median” value ([1]; Visit No. 7, N 16) was −52.5 and the “Table 7 (untitled, change of Table 6 count versus Visit 2), Min.” value ([1]; Visit No. 7, N 16) was −178. The “Table 5 (untitled, lesion count per subject)” value ([1]; Visit No. 7) was 0 (2×) and 4 and 2 and 1 and 5 and 38 and 25 and 39 and 6 and 35 and 21 and 71 and 31 and 60 and 3, the “Percent Responders (≧50% reduction in inflammatory lesions)” value ([1]; Week 4, 1 mg oral daily) was 31% and the “No. of Responders (≧50% reduction in inflammatory lesions)” value ([1]; Week 4) was 5. The “Percent Responders (≧50% reduction in inflammatory lesions)” value ([1]; Week 8, 1 mg oral daily) was 56%, the “No. of Responders (≧50% reduction in inflammatory lesions)” value ([1]; Week 8) was 9 and the “Percent Responders (≧50% reduction in inflammatory lesions)” value ([1]; Week 12, 1 mg oral daily) was 100%. The “No. of Responders (≧50% reduction in inflammatory lesions)” value ([1]; Week 12) was 16, the “Percent Responders (≧50% reduction in inflammatory lesions)” value ([1]; Week 16 (follow-up)) was 88% and the “No. of Responders (≧50% reduction in inflammatory lesions)” value ([1]; Week 16 (follow-up)) was 14. For the same compound, the average lesion reduction ([1]; after 12 weeks, 1 mg oral daily) was 79%, the “time within which inflammatory lesions responded” value ([1]; rambazole-treated inflammatory lesions, in contrast with retinoids such as isotretinoin) was no more than 4 weeks and the “side effects / tolerability” value ([2]; daily oral dose 1 mg, psoriasis patients) was “mild to moderate; also recorded: well tolerated”. For the same compound, the “time lesions continue to improve and show reduced inflammatory patterns after discontinuation of treatment” value ([2]; rambazole-treated lesions such as psoriatic lesions) was “at least 3 months”, the “mean reduction in PASI score” value ([2]; subjects that completed 8 weeks of treatment, daily oral dose 1 mg) was 51.4% and the “% PASI Score from Baseline” value ([2]; week 1, 1 mg oral daily) was 100% (4×) and 93% and 81% and 88% and 80% and 92% (2×) and 113% and 87% and 97% and 89% (2×) and 79% and 108%. For the same compound, the “% PASI Score from Baseline” value ([2]; week 2, 1 mg oral daily) was 99% and 86% (2×) and 95% and 79% and 108% and 75% and 92% (2×) and 150% and 96% and 88% and 89% and 77% and 98% and 83% and 117%, the “% PASI Score from Baseline” value ([2]; week 4, 1 mg oral daily) was 99% and 88% and 81% and 57% and 84% (2×) and 78% and 104% and 85% and 97% and 70% and 69% and 80% and 60% and 107% and 206% and the “% PASI Score from Baseline” value ([2]; week 8, 1 mg oral daily) was 96% and 55% and 109% and 47% and 67% and 73% and 62% and 79% and 43% and 35% and 34% and 41% and 86% and 97%. The “% PASI Score from Baseline” value ([2]; week 10 (end of 2-week follow-up)) was 81% and 27% and 105% and 51% and 36% and 49% and 45% and 37% and 73% and 52% and 4% and 34% and 28% and 70% and 87%, the “expression of IL-1” value [3] was “decrease the expression of IL-1” and the “IP-10 expression and secretion” value [4] was “dose-dependently down regulated”. The “IL-12 secretion (IL-12p40 in supernatant)” value [5] was “dose-dependently suppressed; also recorded: suppression of IL-12” and the “inflammatory response induced by application of SLS (visual scoring of redness, chromametry, TEWL)” value [6] was “inhibits the inflammatory response”.
